US6946458B2, “N-thiolated beta-lactams: novel antibacterial agents for methicillin-resistant Staphylococcus aureus” (University of South Florida, priority 1999, dated 2005)
Where two headings read alike, the source gives them in different places.

What was measured:
MRSA USF652 = experiment: Kirby-Bauer agar disk diffusion; format: cell-based, Staphylococcus aureus; design: Kirby-Bauer Disc Diffusion Test Results: unit not given here; conditions: for zone of inhibition at 20 µg/disc: Staphylococcus aureus, MRSA
In short: (§1)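 Zones of inhibition, in mm and averaged over three runs, are measured after 24 h around 6-mm disks dosed with 20 μg compound on agar lawns of β-lactamase-producing MRSA.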

MRSA USF654 = experiment: Kirby-Bauer agar disk diffusion; format: cell-based, Staphylococcus aureus; design: Kirby-Bauer Disc Diffusion Test Results: unit not given here; conditions: for zone of inhibition at 20 µg/disc: Staphylococcus aureus, MRSA
In short: as §1

MRSA USF658 = experiment: Kirby-Bauer agar disk diffusion; format: cell-based, Staphylococcus aureus; design: Kirby-Bauer Disc Diffusion Test Results: unit not given here; conditions: for zone of inhibition at 20 µg/disc: Staphylococcus aureus, MRSA
In short: as §1

S. simulans (ATCC 11631) = experiment: Kirby-Bauer agar disk diffusion; format: cell-based, Staphylococcus simulans; conditions: 6-mm disks, 20 μg test compound
In short: (§2)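 Agar disk diffusion used 6-mm air-dried disks carrying 20 μg of compound. Values are mean diameters (mm) of the growth-inhibition zone at 24 h, from triplicate experiments. S. epidermidis and S. simulans were clinical isolates.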

[1] = system: S. saprophyticus (ATCC 3552); experiment: Kirby-Bauer agar disk diffusion; format: cell-based, Staphylococcus saprophyticus; conditions: 6-mm disks, 20 μg test compound
In short: as §2

N. gonorrhoeae = experiment: Kirby-Bauer agar disk diffusion; format: cell-based, Neisseria gonorrhoeae; conditions: Neisseria gonorrhoeae; Table 1; 6-mm disks, 20 μg test compound, 24 h, triplicate; β-lactamase positive; read-out: zone of growth inhibition, average diameter
Protocol: In this study, a selection of N-methylthio-substituted β-lactams are examined for antimicrobial activity by the Kirby-Bauer disk diffusion method on agar plates. A variety of common Gram-positive and Gram-negative bacteria are tested, including clinical isolates of methicillin-resistant Staphylococcus aureus (MRSA).
Compound susceptibility measurements are obtained from agar disk diffusion experiments using 6-mm air-dried disks impregnated with 20 μg of the test compound. The values correspond to the average diameters in mm (triplicate experiments) for the zone of growth inhibition observed after 24 h. Staphylococcus aureus (ATCC 25923) and β-lactamase-producing strains of methicillin-resistant Staphylococcus aureus (labeled as MRSA USF652-659) are obtained from Lakeland Regional Medical Center, Lakeland, Fla. Staphylococcus epidermidis, Staphylococcus simulans, Staphylococcus simulans, and Microcossus luteus are clinical isolates from University of South Florida Medical Clinic. Nieserria gonnorhoeae (β-lactamase positive) is obtained from the Tampa Branch State Laboratory. PenG is penicillin G (potassium salt). Table 1 provides the zones of growth inhibition that are observed after 24 hours using the lactams of FIGS. 1A-1I (designated A-I, respectively).

MRSA strains = experiment: MIC by agar dilution; format: cell-based, Staphylococcus aureus; conditions: Staphylococcus aureus, MRSA, read-out: Minimum inhibitory concentration (MIC)
Source text: However, the N-alkylthio substituent is required, since reduction to the N—H analogue completely destroys the biological activity.

MRSA cells = experiment: light microscopy after Gram staining; format: cell-based, Staphylococcus aureus
Source text: In fact, only small isolated colonies of surviving cells can be found, all of which appear perfectly normal in size, shape, smoothness, and clustering behavior. […] Pulse radiolabeling experiments indicate that the lactam of FIG. 1D blocks the bacterial uptake of ^3H-uridine and ^3H-leucine at low (MIC) levels (Lim, D. V. et al. Microbiology, 1977, 33:328; Champney, W. S. and C. G. Tober Antimicrob. Agents and Chemother., 2000, 44:1413).
(FIGS. 14A-14C) S. aureus is a Gram-positive microorganism, and thus reacts with Gram stain to produce a purple coloration due to binding of the stain to the peptidoglycan. 100% of MRSA cells grown either in the absence or presence of the lactam of FIG. 11F take on a purple color when Gram stained (top and center images, next page). In contrast, for MRSA cells treated with penicillin G or vancomycin (cell wall synthesis inhibitors), only about 30% of the cells are Gram-stained purple, with the remainder of the cells appearing pink (bottom image, next page) due to morphologically altered walls. This is strong evidence that the N-methylthio lactams are not affecting late stage events in cell wall biosynthesis.

[2] = Table 1, 6-mm disks, 20 μg test compound, 24 h, triplicate, read-out: zone of growth inhibition, average diameter
[3] = Table 4, 20 μg disk loading, read-out: Zones of Inhibition
[4] = Table 6, 20 μg disk loading, read-out: The Zone of Inhibition
[5] = Table 3, 6-mm disks, 20 μg test compound, 24 hours
[6] = Table 5, beta-lactamase producing strain

SMILES: CC1(C)S[C@@H]2[C@H](NC(=O)Cc3ccccc3)C(=O)N2[C@H]1C(=O)O [PenG, penicillin G, reference compound]
- zone of inhibition at 20 µg/disc (MRSA USF652; [2]): 8 mm
- zone of inhibition at 20 µg/disc (MRSA USF652; [3]): 8 mm
- zone of inhibition at 20 µg/disc (MRSA USF652; [4]): 8 mm
- zone of growth inhibition, average diameter (MRSA USF652; [5]): 8 mm
- Kirby-Bauer Disc Diffusion Test Results (MRSA USF652; [6]): 8
- zone of inhibition at 20 µg/disc (MRSA USF654; [2]): 10 mm
- zone of inhibition at 20 µg/disc (MRSA USF654; [3]): 9 mm
- zone of inhibition at 20 µg/disc (MRSA USF654; [4]): 9 mm
- zone of growth inhibition, average diameter (MRSA USF654; [5]): 10 mm
- Kirby-Bauer Disc Diffusion Test Results (MRSA USF654; [6]): 10
- zone of inhibition at 20 µg/disc (MRSA USF658; [2]): 19 mm
- zone of inhibition at 20 µg/disc (MRSA USF658; [3]): 19 mm
- zone of inhibition at 20 µg/disc (MRSA USF658; [4]): 18 mm
- zone of growth inhibition, average diameter (MRSA USF658; [5]): 19 mm
- Kirby-Bauer Disc Diffusion Test Results (MRSA USF658; [6]): 18
- zone of inhibition at 20 µg/disc (S. simulans (ATCC 11631); Staphylococcus simulans, ATCC11631, Table 1, 24 h, triplicate, read-out: zone of growth inhibition, average diameter): 13 mm
- zone of growth inhibition, average diameter (S. simulans (ATCC 11631); Table 3, 24 hours): 13 mm
- zone of inhibition at 20 µg/disc ([1]; Staphylococcus saprophyticus, ATCC3552, Table 1, 24 h, triplicate, read-out: zone of growth inhibition, average diameter): 30 mm
- zone of growth inhibition, average diameter ([1]; Table 3, 24 hours): 30 mm
- zone of inhibition at 20 µg/disc (N. gonorrhoeae): 0 mm
- MIC (MRSA strains): > 64 µg/mL
- coloration upon Gram staining (MRSA cells; Example 1): pink coloration
- cells Gram-stained purple (MRSA cells; Example 5, MRSA cells grown in presence of the substance): about 30%
